Results from patent US6770596B1, “Fused tricyclic compounds, process for their preparation, and herbicidal compositions containing them” (Ishihara Sangyo Kaisha Ltd., priority 2002, dated 2004).

How the values were obtained:
Format in all cases: in vivo
[1] = test system: redroot pigweed (Amaranthus retroflexus, AMR); assay: Pre-emerge test, redroot pigweed; details: 250 g ai/ha, 14 days after application, rating scale 0-100 (0 no damage, 100 complete death)
In short: (§1)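 Efficacy values are 0–100 phytotoxicity scores (0 no damage, 100 complete death) recorded 14 days post-application. Spray was delivered pre-emergence at 187 l/ha with rates of 8–1000 g ai/ha, using acetone as solvent.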

[2] = test system: velvetleaf (Abutilon theophrasti, ABT); assay: Pre-emerge test, velvetleaf; details: 250 g ai/ha, 14 days after application, rating scale 0-100 (0 no damage, 100 complete death)
In short: as §1

[3] = test system: sicklepod (Cassia obtusifolia, CAO); assay: Pre-emerge test, sicklepod; details: 250 g ai/ha, 14 days after application, rating scale 0-100 (0 no damage, 100 complete death)
In short: as §1

[4] = test system: ivyleaf morningglory (Ipomoea hederacea, IPH); assay: Pre-emerge test, ivyleaf morningglory; details: 250 g ai/ha, 14 days after application, rating scale 0-100 (0 no damage, 100 complete death)
In short: as §1

[5] = test system: lambsquarters (Chenopodium album, CHA); assay: Pre-emerge test, lambsquarters; details: 250 g ai/ha, 14 days after application, rating scale 0-100 (0 no damage, 100 complete death)
In short: as §1

[6] = test system: common ragweed (Ambrosia artemisiifolia L., AML); assay: Pre-emerge test, common ragweed; details: 250 g ai/ha, 14 days after application, rating scale 0-100 (0 no damage, 100 complete death)
In short: as §1

[7] = test system: cocklebur (Xanthium strumariunt, XAS); assay: Pre-emerge test, cocklebur; details: 250 g ai/ha, 14 days after application, rating scale 0-100 (0 no damage, 100 complete death)
In short: as §1

[8] = test system: green foxtail (Setaria viridis, SEV); assay: Pre-emerge test, green foxtail; details: 250 g ai/ha, 14 days after application, rating scale 0-100 (0 no damage, 100 complete death)
In short: as §1

[9] = test system: barnyardgrass (Echinachloa crus-galli, ECC); assay: Pre-emerge test, barnyardgrass; details: 250 g ai/ha, 14 days after application, rating scale 0-100 (0 no damage, 100 complete death)
In short: as §1

[10] = test system: johnsongrass (Sorghum halepense, SOH); assay: Pre-emerge test, johnsongrass; details: 250 g ai/ha, 14 days after application, rating scale 0-100 (0 no damage, 100 complete death)
In short: as §1

[11] = test system: large crabgrass (Digitaria sanguinalis, DIS); assay: Pre-emerge test, large crabgrass; details: 250 g ai/ha, 14 days after application, rating scale 0-100 (0 no damage, 100 complete death)
In short: as §1

[12] = test system: field corn (Zea mays L., var. Dekalb 535, CORN); assay: Pre-emerge test, crop damage field corn; details: pre-emerge, 250 g ai/ha, 14 days after application, rating scale 0-100 (0 no damage, 100 complete death)
In short: (§2)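 Sandy loam soil mix, 10 cm pots, sowing 1 d before treatment; spray volume 187 l/ha, rates 8–1000 g ai/ha in acetone; 0–100 visual rating at 14 d.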

[13] = test system: soybean (Glycine max L., var. Pella 86, SOY); assay: Pre-emerge test, crop damage soybean; details: pre-emerge, 250 g ai/ha, 14 days after application, rating scale 0-100 (0 no damage, 100 complete death)
In short: as §2

[14] = test system: upland rice (Oryza sp., var.Tebonnet, RICE); assay: Pre-emerge test, crop damage upland rice; details: pre-emerge, 250 g ai/ha, 14 days after application, rating scale 0-100 (0 no damage, 100 complete death)
In short: as §2

[15] = test system: wheat (Triticum aestivum); assay: Pre-emerge test, crop damage wheat; details: pre-emerge, 250 g ai/ha, 14 days after application, rating scale 0-100 (0 no damage, 100 complete death)
In short: as §2

[16] = test system: redroot pigweed (Amaranthus retroflexus, AMR); assay: Post-emerge test, redroot pigweed; details: 250 g ai/ha, 14 days after application, rating scale 0-100 (0 no damage, 100 complete death)
In short: (§3)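 Foliar application, track sprayer with flat fan nozzle, 187 l/ha acetone + 0.25% v/v NIS, 8-1000 g ai/ha; plants at 2-3 leaves, sown 8-21 d before. Scored 0-100 at 14 DAA.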

[17] = test system: velvetleaf (Abutilon theophrasti, ABT); assay: Post-emerge test, velvetleaf; details: 250 g ai/ha, 14 days after application, rating scale 0-100 (0 no damage, 100 complete death)
In short: as §3

[18] = test system: sicklepod (Cassia obtusifolia, CAO); assay: Post-emerge test, sicklepod; details: 250 g ai/ha, 14 days after application, rating scale 0-100 (0 no damage, 100 complete death)
In short: as §3

[19] = test system: ivyleaf morningglory (Ipomoea hederacea, IPH); assay: Post-emerge test, ivyleaf morningglory; details: 250 g ai/ha, 14 days after application, rating scale 0-100 (0 no damage, 100 complete death)
In short: as §3

[20] = test system: lambsquarters (Chenopodium album, CHA); assay: Post-emerge test, lambsquarters; details: 250 g ai/ha, 14 days after application, rating scale 0-100 (0 no damage, 100 complete death)
In short: as §3

[21] = test system: common ragweed (Ambrosia artemisiifolia L., AML); assay: Post-emerge test, common ragweed; details: 250 g ai/ha, 14 days after application, rating scale 0-100 (0 no damage, 100 complete death)
In short: as §3

[22] = test system: cocklebur (Xanthium strumariunt, XAS); assay: Post-emerge test, cocklebur; details: 250 g ai/ha, 14 days after application, rating scale 0-100 (0 no damage, 100 complete death)
In short: as §3

[23] = test system: green foxtail (Setaria viridis, SEV); assay: Post-emerge test, green foxtail; details: 250 g ai/ha, 14 days after application, rating scale 0-100 (0 no damage, 100 complete death)
In short: as §3

[24] = test system: barnyardgrass (Echinachloa crus-galli, ECC); assay: Post-emerge test, barnyardgrass; details: 250 g ai/ha, 14 days after application, rating scale 0-100 (0 no damage, 100 complete death)
In short: as §3

[25] = test system: johnsongrass (Sorghum halepense, SOH); assay: Post-emerge test, johnsongrass; details: 250 g ai/ha, 14 days after application, rating scale 0-100 (0 no damage, 100 complete death)
In short: as §3

[26] = test system: large crabgrass (Digitaria sanguinalis, DIS); assay: Post-emerge test, large crabgrass; details: 250 g ai/ha, 14 days after application, rating scale 0-100 (0 no damage, 100 complete death)
In short: as §3

[27] = test system: field corn (Zea mays L., var. Dekalb 535, CORN); assay: Post-emerge test, crop damage field corn; details: post-emerge, 250 g ai/ha, 14 days after application, rating scale 0-100 (0 no damage, 100 complete death)
In short: as §3

[28] = test system: soybean (Glycine max L., var. Pella 86, SOY); assay: Post-emerge test, crop damage soybean; details: post-emerge, 250 g ai/ha, 14 days after application, rating scale 0-100 (0 no damage, 100 complete death)
In short: as §3

[29] = test system: upland rice (Oryza sp., var.Tebonnet, RICE); assay: Post-emerge test, crop damage upland rice; details: post-emerge, 250 g ai/ha, 14 days after application, rating scale 0-100 (0 no damage, 100 complete death)
In short: as §3

[30] = test system: wheat (Triticum aestivum); assay: Post-emerge test, crop damage wheat; details: post-emerge, 250 g ai/ha, 14 days after application, rating scale 0-100 (0 no damage, 100 complete death)
In short: as §3

Row | SMILES | Pre-emerge Herbicidal Activity AMR (phytotoxicity rating) [1] | Pre-emerge Herbicidal Activity ABT (phytotoxicity rating) [2] | Pre-emerge Herbicidal Activity CAO (phytotoxicity rating) [3] | Pre-emerge Herbicidal Activity IPH (phytotoxicity rating) [4] | Pre-emerge Herbicidal Activity CHA (phytotoxicity rating) [5] | Pre-emerge Herbicidal Activity AML (phytotoxicity rating) [6] | Pre-emerge Herbicidal Activity XAS (phytotoxicity rating) [7] | Pre-emerge Herbicidal Activity SEV (phytotoxicity rating) [8] | Pre-emerge Herbicidal Activity ECC (phytotoxicity rating) [9] | Pre-emerge Herbicidal Activity SOH (phytotoxicity rating) [10] | Pre-emerge Herbicidal Activity DIS (phytotoxicity rating) [11] | Pre-emerge crop damage CORN (phytotoxicity rating) [12] | Pre-emerge crop damage SOY (phytotoxicity rating) [13] | Pre-emerge crop damage RICE (phytotoxicity rating) [14] | Pre-emerge crop damage WHEAT (phytotoxicity rating) [15] | Post-emerge Herbicidal Activity AMR (phytotoxicity rating) [16] | Post-emerge Herbicidal Activity ABT (phytotoxicity rating) [17] | Post-emerge Herbicidal Activity CAO (phytotoxicity rating) [18] | Post-emerge Herbicidal Activity IPH (phytotoxicity rating) [19] | Post-emerge Herbicidal Activity CHA (phytotoxicity rating) [20] | also measured
1 | CC(C)C1C(=O)Nc2c3c(cc(F)c2-n2c(=O)cc(C(F)(F)F)n(C)c2=O)OCC(=O)N31 (stereo not drawn) [1-77] | 100 | 100 | 90 | 100 | 100 | 100 | 98 | 100 | 100 | 99 | 100 | 100 | 100 | 99 | 99 | 25 | 50 | 0 | 75 | 90 | Post-emerge Herbicidal Activity AML (phytotoxicity rating) [21]: 0; Post-emerge Herbicidal Activity XAS (phytotoxicity rating) [22]: 50; Post-emerge Herbicidal Activity SEV (phytotoxicity rating) [23]: 0; Post-emerge Herbicidal Activity ECC (phytotoxicity rating) [24]: 0; Post-emerge Herbicidal Activity SOH (phytotoxicity rating) [25]: 0; Post-emerge Herbicidal Activity DIS (phytotoxicity rating) [26]: 0; Post-emerge crop damage CORN (phytotoxicity rating) [27]: 0; Post-emerge crop damage SOY (phytotoxicity rating) [28]: 10; Post-emerge crop damage RICE (phytotoxicity rating) [29]: 35; Post-emerge crop damage WHEAT (phytotoxicity rating) [30]: 0
2 | CC(C)C1C(=O)Nc2c(N3C(=O)C4=C(CCCC4)C3=O)c(F)cc3c2N1C(=O)CO3 (stereo not drawn) [1-78] | 20 | 10 | 15 | 25 | 70 | 0 | 0 | 0 | 0 | 0 | 0 | 0 | 0 | 0 | 0 | 60 | 0 | 0 | 75 | 99 | Post-emerge Herbicidal Activity AML (phytotoxicity rating) [21]: 70; Post-emerge Herbicidal Activity XAS (phytotoxicity rating) [22]: 80; Post-emerge Herbicidal Activity SEV (phytotoxicity rating) [23]: 0; Post-emerge Herbicidal Activity ECC (phytotoxicity rating) [24]: 0; Post-emerge Herbicidal Activity SOH (phytotoxicity rating) [25]: 0; Post-emerge Herbicidal Activity DIS (phytotoxicity rating) [26]: 0; Post-emerge crop damage CORN (phytotoxicity rating) [27]: 0; Post-emerge crop damage SOY (phytotoxicity rating) [28]: 10; Post-emerge crop damage RICE (phytotoxicity rating) [29]: 60; Post-emerge crop damage WHEAT (phytotoxicity rating) [30]: 50
3 | Cn1nc(-c2c(F)cc3c4c2NC(=O)C(Cl)N4C(=O)CO3)c(Cl)c1OC(F)F (stereo not drawn) [1-79] | 100 | 75 | 60 | 60 | 100 | 99 | 65 | 15 | 35 | 50 | 80 | 30 | 40 | 30 | 30 | 70 | 75 | 0 | 60 | 65 | Post-emerge Herbicidal Activity AML (phytotoxicity rating) [21]: 80; Post-emerge Herbicidal Activity XAS (phytotoxicity rating) [22]: 0; Post-emerge Herbicidal Activity SEV (phytotoxicity rating) [23]: 65; Post-emerge Herbicidal Activity ECC (phytotoxicity rating) [24]: 25; Post-emerge Herbicidal Activity SOH (phytotoxicity rating) [25]: 0; Post-emerge Herbicidal Activity DIS (phytotoxicity rating) [26]: 0; Post-emerge crop damage CORN (phytotoxicity rating) [27]: 0; Post-emerge crop damage SOY (phytotoxicity rating) [28]: 0; Post-emerge crop damage RICE (phytotoxicity rating) [29]: 0; Post-emerge crop damage WHEAT (phytotoxicity rating) [30]: 0
